Consider four molecules from publication PMC4728608, “A Cell-Penetrating Peptide with a Guanidinylethyl Amine Structure Directed to Gene Delivery” (Scientific Reports, 2016).

For data set [1] the following is noted: cited from earlier work. An excerpt:
The unnatural amino acid described herein was a lysine (Lys) derivative with a guanidinylethyl (GEt) group in the side chain amine [Lys(GEt)] (Fig. 1).

Data set [2] in a line: Potentiometric titration of model compounds. The settings on record: for protonation degree α at pH 5.5 / protonation degree α at pH 7.4: 100 mM amine and/or guanidine in 100 mM HCl titrated with 100 mM NaOH. The method, then:
1-Ethylamino-2-guanidinylethane hydrochloride, a model compound for Lys(GEt), was synthesized according to Supplementary Scheme S3 in order to clarify the protonation degree of the GEt amine structure within a range from pH 3 to pH 13. […] The monoprotonate state was a major form of the AEt amine structure at neutral pH. […] The GEt amine structure took the diprotonated form even at neutral pH, as expected.
N-Ethylethylenediamine hydrochloride (80.5 mg, 0.5 mmol) and 1-ethylamino-2-guanidinylethane hydrochloride (101.5 mg, 0.5 mmol) were separately dissolved in 100 mM HCl (10 mL) to obtain a solution with 100 mM amine and/or guanidine, and then titrated with 100 mM NaOH at 20 °C. Potentiometric titration was performed with a pH meter D-52 (Horiba, Kyoto, Japan). In this experiment, the titrant was added in quantities of 100 μL after the pH values were stabilized.

Setting [3] is: potentiometric titration, 20 °C.
Setting [4] is: potentiometric titration, 100 mM in 100 mM HCl titrated with 100 mM NaOH, 20 °C.

Structures are written as SMILES. Where two headings read alike, the source gives them in different places.

`NCCCC[C@H](N)C(=O)O` [Lys, lysine]: the “pKa of protonated side chain (guanidine of Arg, primary amine of Lys)” value in data set [1] is 10.2.

In the case of `CCNCCN.Cl` [N-Ethylethylenediamine hydrochloride], in data set [2] (setting [3]), the “protonation degree α at pH 5.5” value is on record as 0.97 and the “protonation degree α at pH 7.4” value was found to be 0.66. Also, in data set [2] (setting [4]), the pKa1 turned out to be 7.1 and the pKa2 was 10.3.

For `NCCNCCN` [diethylenetriamine], the “pKa of protonated secondary amine” value in data set [1] is listed as 3.9.

Take `CCNCCNC(=N)N.Cl` [model compound for Lys(GEt), 1-Ethylamino-2-guanidinylethane hydrochloride]: in data set [2], the pKa1 was determined as 8.8 and the pKa2 came out at 12.0. In data set [2] (setting [3]), the “protonation degree α at pH 5.5” value is reported as 0.99 and the “protonation degree α at pH 7.4” value is listed as 0.96.
